Experimental data from patent US20210087175A1, “Crystalline Form II of Darolutamide” (Sandoz AG, priority 2018, published 2021).

How the values were obtained:
[1] = Time-dependent solubility of slurries (HPLC) in aqueous hydrochloric acid (0.1 N) and phosphate buffer (pH 7.5) at 37° C.; format: physicochemical
Procedure: a) Solubility in Aqueous Hydrochloric Acid (0.1 N)
102.39 mg of darolutamide form I were slurried in 20 mL aqueous hydrochloric acid (0.1 N) at 37° C.
99.41 mg of darolutamide form II were slurried in 20 mL aqueous hydrochloric acid (0.1 N) at 37° C.
b) Solubility in Phosphate Buffer (pH 7.5)
105.02 mg of darolutamide form I were slurried in 20 mL […] at 37° C.
103.41 mg of darolutamide form II were slurried in 20 mL […] at 37° C.
Samples were taken after 5 min, 15 min and 60 min. The suspensions were filtered and subjected undiluted to HPLC. The absolute solubility was calculated by creating a linear calibration curve (see below). Results are reported in Table 4 and in FIGS. 10 and 11.
Solutions of different concentrations (Table 5) of darolutamide were prepared in acetonitrile/water (75% v/v) at 37° C. and subjected to HPLC measurement. The resulting areas were illustrated as a function of the concentrations and a linear dependency could be observed (FIG. 12).

[2] = Gravimetric moisture sorption (GMS); format: physicochemical; details: for phase change during the GMS experiments: 0% to approximately 90% r.h.; for water uptake from 0% to 90% RH: 25±0.1° C.
Procedure: Moisture sorption isotherms were recorded with an SPSx-1p moisture sorption analyzer (ProUmid, Ulm. The measurement cycle was started at a relative humidity (r.h.) of 25%. Relative humidity was then decreased to 5% r.h. in 5% steps, followed by a further decrease to 3% r.h. and to 0% r.h. Afterwards r.h. was increased from 0% to approximately 90% r.h. in a sorption cycle and decreased to 0% in a desorption cycle in 5% steps. Finally r.h. was increased to 25% r.h. in 5% steps.
The time per step was set to a minimum of 2 hours and a maximum of 6 hours. If an equilibrium condition with a constant mass of 0.01% within 1 hour was reached before the maximum time for all examined samples the sequential humidity step was applied before the maximum time of 6 hours. If no equilibrium was achieved the consecutive humidity step was applied after the maximum time of 6 hours. The temperature was 25±0.1° C.

[3] = Time-dependent solubility of slurries (HPLC) in aqueous hydrochloric acid (0.1 N) and phosphate buffer (pH 7.5) at 37° C.; format: physicochemical; details: phosphate buffer (pH 7.5)
[4] = Food effect / blood levels after oral administration; format: in vivo

solubility (concentration in solution) ([1]; slurry time 5 min) [µg/mL] | solubility (concentration in solution) ([1]; slurry time 15 min) [µg/mL] | solubility (concentration in solution) ([1]; slurry time 60 min) [µg/mL] | water uptake from 0% to 90% RH ([2]; GMS) | solubility (concentration in solution) ([3]; slurry time 5 min) [µg/mL] | solubility (concentration in solution) ([3]; slurry time 15 min) [µg/mL] | solubility (concentration in solution) ([3]; slurry time 60 min) [µg/mL] | hygroscopicity (comparison) ([2]; GMS, 25° C.) | food effect ([4]; compared to darolutamide Form I) | Structure (SMILES) | phase change during the GMS experiments ([2]; 25° C.) | blood levels when administered without food ([4]; without food)
43 | 41 | 38 | +1.7% | 43 | 40 | 42 | – | – | CC(O)c1cc(C(=O)N[C@@H](C)Cn2ccc(-c3ccc(C#N)c(Cl)c3)n2)n[nH]1 (mixture of isomers) [Form I, N-{(2S)-1-[3-(3-chloro-4-cyanophenyl)-1H-pyrazol-1-yl]-propan-2-yl}-5-[(1RS)-1-hydroxyethyl]-1H-pyrazole-3-carboxamide] | Neither form I nor form II underwent any phase change | –
113 | 121 | 117 | +1.3% | 89 | 97 | 93 | less hygroscopic than form I | significantly lower food effect | CC(O)c1cc(C(=O)N[C@@H](C)Cn2ccc(-c3ccc(C#N)c(Cl)c3)n2)n[nH]1 (mixture of isomers) [Form II, N-{(2S)-1-[3-(3-chloro-4-cyanophenyl)-1H-pyrazol-1-yl]-propan-2-yl}-5-[(1RS)-1-hydroxyethyl]-1H-pyrazole-3-carboxamide] | Neither form I nor form II underwent any phase change | still achieving therapeutically effective blood levels
